Results published in PubChem BioAssay (NCI).
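In this assay, cells in 96-well plates receive the compound at five concentrations for 48 hours. Endpoints are linearly interpolated between the surrounding concentrations. GI50: concentration for 50% inhibition of growth. TGI denotes the concentration required for complete inhibition of growth.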

What was measured:
Test in all cases: NCI anticancer screen, dose series, 48 h
[1] = tested on: TK-10 renal
[2] = tested on: SK-MEL-2 melanoma
[3] = tested on: NCI-H522 lung
[4] = tested on: RPMI-8226 leukemia
[5] = tested on: SNB-19 CNS
[6] = tested on: A498 renal
[7] = tested on: M14 melanoma
[8] = tested on: U251 CNS
[9] = tested on: OVCAR-8 ovarian
[10] = tested on: UACC-62 melanoma
[11] = tested on: DU-145 prostate
[12] = tested on: HCT-15 colon
[13] = tested on: EKVX NSCLC
[14] = tested on: SF-268 CNS
[15] = tested on: PC-3 prostate
[16] = tested on: IGROV1 ovarian
[17] = tested on: HS 578T breast
[18] = tested on: SK-MEL-28 melanoma
[19] = tested on: NCI-H226 lung
[20] = tested on: MCF7 breast
[21] = tested on: UO-31 renal
[22] = tested on: COLO 205 colon
[23] = tested on: HCC-2998 colon
[24] = tested on: NCI-H460 lung
[25] = tested on: OVCAR-5 ovarian
[26] = tested on: MALME-3M melanoma
[27] = tested on: 786-0 renal
[28] = tested on: SNB-75 CNS
[29] = tested on: SF-539 CNS
[30] = tested on: SR leukemia
[31] = tested on: NCI-H23 lung
[32] = tested on: MDA-MB-435
[33] = tested on: SK-MEL-5 melanoma
[34] = tested on: HOP-62 NSCLC
[35] = tested on: SK-OV-3 ovarian
[36] = tested on: ACHN renal
[37] = tested on: A549 NSCLC
[38] = tested on: LOX IMVI melanoma
[39] = tested on: SN12C renal
[40] = tested on: MDA-MB-231 breast
[41] = tested on: RXF 393 renal
[42] = tested on: KM12 colon
[43] = tested on: SF-295 CNS
[44] = tested on: BT-549 breast
[45] = tested on: OVCAR-3 ovarian
[46] = tested on: OVCAR-4 ovarian
[47] = tested on: NCI/ADR-RES ovarian
[48] = tested on: HT29 colon
[49] = tested on: T-47D breast
[50] = tested on: SW-620 colon
[51] = tested on: HCT-116 colon
[52] = tested on: MOLT-4 leukemia
[53] = tested on: HOP-92 NSCLC
[54] = tested on: CCRF-CEM leukemia
[55] = tested on: K-562 leukemia
[56] = tested on: UACC-257 melanoma
[57] = tested on: HL-60(TB) leukemia
[58] = tested on: CAKI-1 renal

Cc1cc2c(c(S(=O)(=O)c3ccc(Cl)cc3[N+](=O)[O-])c1)NCCC2
TGI [1]: > 100 µM | TGI [2]: > 100 µM | TGI [3]: > 100 µM | TGI [4]: > 100 µM | TGI [5]: > 100 µM | TGI [6]: > 100 µM | TGI [7]: > 100 µM | TGI [8]: > 100 µM | TGI [9]: > 100 µM | TGI [10]: > 100 µM | TGI [11]: > 100 µM | TGI [12]: > 100 µM | TGI [13]: > 100 µM | TGI [14]: > 100 µM | TGI [15]: > 100 µM | TGI [16]: > 100 µM | TGI [17]: > 100 µM | TGI [18]: > 100 µM | TGI [19]: > 100 µM | TGI [20]: > 100 µM | TGI [21]: > 100 µM | TGI [22]: > 100 µM | TGI [23]: > 100 µM | TGI [24]: > 100 µM | TGI [25]: > 100 µM | TGI [26]: > 100 µM | TGI [27]: > 100 µM | TGI [28]: > 100 µM | TGI [29]: > 100 µM | TGI [30]: > 100 µM | TGI [31]: > 100 µM | TGI [32]: > 100 µM | TGI [33]: > 100 µM | TGI [34]: > 100 µM | TGI [35]: > 100 µM | TGI [36]: > 100 µM | TGI [37]: > 100 µM | TGI [38]: > 100 µM | TGI [39]: > 100 µM | TGI [40]: > 100 µM | TGI [41]: > 100 µM | TGI [42]: > 100 µM | TGI [43]: > 100 µM | TGI [44]: > 100 µM | TGI [45]: > 100 µM | TGI [46]: > 100 µM | TGI [47]: > 100 µM | TGI [48]: > 100 µM | TGI [49]: > 100 µM | TGI [50]: > 100 µM

CSc1nc(-c2cc3ccccc3o2)cc(-c2ccc(Cl)cc2)c1C#N
GI50 [1]: 8.07 µM | TGI [1]: 31.8 µM | GI50 [51]: 5.11 µM | TGI [51]: > 100 µM | GI50 [3]: 8.67 µM | TGI [3]: > 100 µM | GI50 [52]: > 85 µM | TGI [52]: > 100 µM | GI50 [4]: > 67.6 µM | TGI [4]: > 100 µM | GI50 [5]: 19.7 µM | TGI [5]: > 76.5 µM | GI50 [6]: 27 µM | TGI [6]: > 100 µM | GI50 [7]: 45.5 µM | TGI [7]: > 100 µM | GI50 [8]: 3.76 µM | TGI [8]: 28.4 µM | GI50 [53]: 3.4 µM | TGI [53]: 15.2 µM | GI50 [9]: 3.57 µM | TGI [9]: > 100 µM | GI50 [10]: 5.03 µM | TGI [10]: > 49.8 µM | GI50 [11]: 3.87 µM | TGI [11]: > 100 µM | GI50 [13]: 0.918 µM | TGI [13]: > 100 µM | GI50 [54]: > 100 µM | TGI [54]: > 100 µM | GI50 [14]: 18 µM | TGI [14]: > 80.1 µM | GI50 [15]: 8.82 µM | TGI [15]: > 100 µM | GI50 [16]: 0.706 µM | TGI [16]: 13.4 µM | GI50 [17]: 22.2 µM | TGI [17]: > 64.3 µM | GI50 [18]: > 100 µM | TGI [18]: > 100 µM | GI50 [19]: 6.28 µM | TGI [19]: > 100 µM | GI50 [20]: 0.352 µM | TGI [20]: > 100 µM | GI50 [21]: 1.73 µM | TGI [21]: > 100 µM | GI50 [25]: > 84.6 µM | TGI [25]: > 100 µM | GI50 [26]: 20.5 µM | TGI [26]: > 100 µM | GI50 [27]: 7.36 µM | TGI [27]: 76.8 µM | GI50 [55]: > 100 µM | TGI [55]: > 100 µM | GI50 [28]: 5.56 µM | TGI [28]: 26.6 µM | GI50 [29]: 2.99 µM | TGI [29]: 14.6 µM | GI50 [56]: > 100 µM | TGI [56]: > 100 µM | GI50 [30]: 28.6 µM | TGI [30]: > 100 µM | GI50 [31]: 9.24 µM | TGI [31]: > 100 µM | GI50 [32]: > 100 µM | TGI [32]: > 100 µM | GI50 [33]: > 100 µM | TGI [33]: > 100 µM | GI50 [34]: 12.7 µM | TGI [34]: > 79.6 µM | GI50 [35]: 5.29 µM | TGI [35]: 56.8 µM | GI50 [57]: > 100 µM | TGI [57]: > 100 µM | GI50 [36]: 3.03 µM | TGI [36]: 67.7 µM | GI50 [37]: 4.48 µM | TGI [37]: > 100 µM | GI50 [38]: 9.53 µM | TGI [38]: > 100 µM | GI50 [39]: 26.9 µM | TGI [39]: > 100 µM | GI50 [40]: 3.58 µM | TGI [40]: 50 µM | GI50 [41]: 3.7 µM | TGI [41]: 20.1 µM | GI50 [42]: > 100 µM | TGI [42]: > 100 µM | GI50 [43]: 6.17 µM | TGI [43]: 37.8 µM | GI50 [44]: 23.8 µM | TGI [44]: 75.7 µM | GI50 [58]: 5.28 µM | TGI [58]: > 73.4 µM | GI50 [45]: 2.58 µM | TGI [45]: > 24.2 µM | GI50 [46]: > 100 µM | TGI [46]: > 100 µM | GI50 [47]: 44.9 µM | TGI [47]: > 100 µM | GI50 [49]: 0.93 µM | TGI [49]: > 100 µM | GI50 [50]: > 100 µM | TGI [50]: > 100 µM

ClCc1ccccc1Cn1cnc2c(Cl)nc(Cl)nc21
GI50 [1]: 1.02 µM | TGI [1]: 2.49 µM | GI50 [51]: 0.0605 µM | TGI [51]: 0.188 µM | GI50 [2]: 2.25 µM | TGI [2]: 4.72 µM | GI50 [3]: 0.964 µM | TGI [3]: 2.6 µM | GI50 [52]: 0.574 µM | TGI [52]: 1.59 µM | GI50 [4]: 0.139 µM | TGI [4]: 0.501 µM | GI50 [5]: 1.04 µM | TGI [5]: 2.24 µM | GI50 [6]: 2.05 µM | TGI [6]: 4 µM | GI50 [7]: 0.453 µM | TGI [7]: 1.07 µM | GI50 [8]: 0.222 µM | TGI [8]: 0.602 µM | GI50 [9]: 1.44 µM | TGI [9]: 2.98 µM | GI50 [10]: 0.408 µM | TGI [10]: 0.865 µM | GI50 [11]: 0.207 µM | TGI [11]: 0.743 µM | TGI [12]: 0.139 µM | GI50 [13]: 0.332 µM | TGI [13]: 0.811 µM | GI50 [54]: 0.0313 µM | TGI [54]: 0.0939 µM | GI50 [14]: 0.115 µM | TGI [14]: 0.556 µM | GI50 [15]: 0.425 µM | TGI [15]: 1.61 µM | GI50 [16]: 0.996 µM | TGI [16]: 2.53 µM | GI50 [17]: 1.19 µM | TGI [17]: 3.55 µM | GI50 [18]: 0.942 µM | TGI [18]: 2.48 µM | GI50 [19]: 0.603 µM | TGI [19]: 1.59 µM | GI50 [20]: 0.118 µM | TGI [20]: > 100 µM | GI50 [21]: 0.379 µM | TGI [21]: 1.44 µM | GI50 [22]: 0.163 µM | TGI [22]: 0.362 µM | GI50 [23]: 0.315 µM | TGI [23]: 1.32 µM | GI50 [24]: 2.29 µM | TGI [24]: 7.15 µM | GI50 [25]: 0.471 µM | TGI [25]: 1.21 µM | GI50 [26]: 1.22 µM | TGI [26]: 3.59 µM | GI50 [27]: 0.167 µM | TGI [27]: 0.634 µM | GI50 [55]: 0.189 µM | TGI [55]: 1.94 µM | GI50 [28]: 0.892 µM | TGI [28]: 2.14 µM | GI50 [29]: 0.17 µM | TGI [29]: 0.467 µM | GI50 [56]: 1.9 µM | TGI [56]: 4 µM | GI50 [30]: 1.77 µM | TGI [30]: 4.93 µM | GI50 [31]: 0.485 µM | TGI [31]: 1.02 µM | GI50 [32]: 1.64 µM | TGI [32]: 3.27 µM | GI50 [33]: 0.104 µM | TGI [33]: 0.501 µM | GI50 [34]: 1.38 µM | TGI [34]: 2.78 µM | GI50 [35]: 1.95 µM | TGI [35]: 3.7 µM | GI50 [57]: 0.181 µM | TGI [57]: 1.35 µM | GI50 [36]: 0.0785 µM | TGI [36]: 0.316 µM | GI50 [37]: 2.82 µM | TGI [37]: 8.8 µM | GI50 [38]: < 0.0395 µM | TGI [38]: 0.169 µM | GI50 [39]: 0.362 µM | TGI [39]: 1.02 µM | TGI [40]: 0.295 µM | GI50 [41]: 1.46 µM | TGI [41]: 3.01 µM | GI50 [42]: 1.48 µM | TGI [42]: 2.95 µM | GI50 [43]: 1.58 µM | TGI [43]: 3.11 µM | GI50 [44]: 0.46 µM | TGI [44]: 1.5 µM | GI50 [58]: 0.728 µM | TGI [58]: 1.59 µM | GI50 [45]: 0.547 µM | TGI [45]: 1.17 µM | GI50 [46]: 1.03 µM | TGI [46]: 2.55 µM | GI50 [47]: 0.552 µM | TGI [47]: 1.33 µM | GI50 [49]: 1.99 µM | TGI [49]: 5.46 µM | GI50 [50]: < 0.0392 µM | TGI [50]: 0.0647 µM
